Source: patent US11440880B2, “Thalidomide analogs and methods of use” (The USA, as represented by the Secretary, Department of …, priority 2015, dated 2022)

Assays:
[1] = system: mpo:GFP zebrafish embryos (neutrophil migration to the wound site); test: mpo:GFP zebrafish fin-clip neutrophil migration (inflammation) assay; assay type: in vivo; parameters: mpo:GFP inflammation n (survived/tested): concentration or dose not given beside the values; conditions: for minimal effective concentration: Danio rerio, Neutrophil, lowest concentration producing an effect, compounds not producing an effect shown at the highest evaluated concentration; for mpo:GFP inflammation n (survived/tested): embryos survived/tested at the concentration given
From the text: Zebrafish embryology: The use of zebrafish embryo (Danio rerio) bioassays as a preclinical model in the classification of novel compounds has increased in recent years due to several factors including; low cost, ease of maintenance, speed of embryonic development, transparency of the embryos and genetic conservation between zebrafish and humans (Howe et al., Nature 2013; 496:498; Therapontos et al., PNAS 2009, 106:8573; Mahony et al., PNAS 2013, 110:12703; Beedie et al., Oncotarget 2016, 7(22):33237; Beedie et al., Mol. Cancer Ther. 2015, 14(10):2228). Two established zebrafish reporter lines were used—the fli1:EGFP line, where the fli1 promoter drives expression of enhanced green fluorescent protein within the developing vasculature (Lawson et al., 2002), and the Tg(mpo::EGFP) line (also known as mpo:GFP), which expresses green fluorescent protein via the neutrophil specific myeloperoxidase promoter (Renshaw et al., Blood 2006, 108:3976). The use of these zebrafish transgenic reporter lines allows for the identification of potential anti-angiogenic and anti-inflammatory compounds respectively, and both have been used previously to successfully classify the action of thalidomide analogs (Therapontos et al., 2009; Mahony et al., 2013; Beedie et al., Oncotarget 2016, 7(22):33237; Beedie et al., Mol. Cancer Ther. 2015, 14(10):2228). Zebrafish embryos were treated with analogs as previously described (Mahony et al., 2013). Briefly, fli1:EGFP embryos were collected and embryos were allowed to develop for 24 hours. Embryos were dechorionated manually and exposed to test compounds or vehicle control for a further 24 hours, imaged and analyzed for intersegmental vessel (ISV) growth. At 24 hours post fertilisation (hpf) the ISVs were ideal to study to visualize and analyze the actions of compounds on angiogenesis. At this time point ISVs were rapidly forming beneath the developing head, over the body and had yet to form in the tail (Lawson and Weinstein, Developmental Biology 2002, 248:307; Therapontos and Vargesson, Developmental Dynamics 2010, 239:2761). Additionally, these sprouts would go on to form the bilateral dorsal longitudinal anastomotic vessels. By treating before this fusion and formation occurs, the effect of each compound on the individual vessels as well as overall patterning structural integrity (Isogai et al., Development 2003, 130:5281) could be determined. Tg(mpo::EGFP) were tail fin clipped as previously detailed (Renshaw et al., 2006; Mahony et al., 2013; Beedie et al., Oncotarget 2016, 7(22):33237; Beedie et al., Mol. Cancer Ther. 2015, 14(10):2228) and incubated with test compounds or vehicle control at 72 hours post fertilization. Fish were imaged at 24 hours and the number of migratory neutrophils present at the wound site were counted. Compounds inducing an at least 50% reduction of neutrophils to the wound site were considered to have anti-inflammatory properties in this system. All larvae were assessed for viability and morphological integrity.
To assess the immunomodulatory effects of the thalidomide analogs, the mpo:gfp transgenic zebrafish line (Renshaw et al., Blood 2006, 108:3976-3978) was utilized because it is an accepted model of inflammation, and can be used to test the effect of anti-inflammatory agents. These embryos express GFP-tagged myeloperoxidase, where green fluorescence marks the neutrophil cells involved in the inflammatory response process, for example following injury, from 72 hours post fertilization (Renshaw et al., 2006; Mahony et al., 2013; Beedie et al., Oncotarget 2016, 7(22):33237). At 72 hpf the dorsal third of the tail fin was removed and the embryos were immersed in the desired compound or vehicle (FIGS. 5A-5C). The embryos were examined for the effect on the inflammatory response quantified as an induction and migration of neutrophils to the wound site 24 hours later.

[2] = system: TNF-α protein; test: TNF-α protein level (ELISA) in LPS-challenged RAW 264.7 cells; assay type: cell-based, mouse; parameters: key: NS=not significant; a “+” sign=anti-inflammatory or increased cell numbers; a “−” sign=cell toxicity or pro-inflammatory; conditions: LPS 30 or 60 ng/mL, 24 h
Method in brief: (§1)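 RAW 264.7 cells pretreated 1 h with compound in DMSO vehicle, then challenged with LPS (30 or 60 ng/mL) for 24 h at 37° C. Conditioned-media nitrite by Griess (520 nm, sodium nitrite standard curve, 1.5 μM cutoff) in μM; mouse TNF-α by ELISA as pg/ml or % change from control.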

[3] = system: fli1:EGFP zebrafish embryos (intersegmental vessel growth); test: fli1:EGFP zebrafish embryo angiogenesis assay; assay type: in vivo; parameters: fli1:EGFP angiogenesis n (survived/tested): concentration or dose not given beside the values; conditions: for minimal effective concentration: Danio rerio, lowest concentration producing an effect, compounds not producing an effect shown at the highest evaluated concentration; for fli1:EGFP angiogenesis n (survived/tested): embryos alive after 24 hours of exposure
Method in brief: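 fli1:EGFP embryos grown 24 hpf, dechorionated and exposed to compound or vehicle over a range of concentrations for up to 24 h, with CPS49 as positive control. Imaged at 48 hpf for intersegmental vessel formation and growth; survival after 24 h exposure recorded, and values reflect the lowest concentration producing an effect.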

[4] = system: RAW 264.7 cells; test: Cell viability (CellTiter 96 AQueous One) of LPS-challenged RAW 264.7 cells; assay type: cell-based, mouse; parameters: key: NS=not significant; a “+” sign=anti-inflammatory or increased cell numbers; a “−” sign=cell toxicity or pro-inflammatory
Method in brief: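 RAW 264.7 murine macrophages pretreated 1 h with compound or DMSO vehicle, then challenged with LPS (serotype 055:B5) at 30 or 60 ng/mL final for 24 h. After media replacement, viability measured by tetrazolium (MTS) conversion, absorbance at 490 nm, reported as O.D.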

[5] = system: nitrite levels in the culture media; test: Nitrite level (Griess Reagent System) in LPS-challenged RAW 264.7 cells; assay type: cell-based, mouse; parameters: key: NS=not significant; a “+” sign=anti-inflammatory or increased cell numbers; a “−” sign=cell toxicity or pro-inflammatory; conditions: LPS 30 or 60 ng/mL, 24 h
Method in brief: as §1

O=C1c2cccc([N+](=O)[O-])c2CN1c1nc2ccc(C(F)(F)F)cc2s1 [Compound 63]
minimal effective concentration [1]: 100 µg/mL
mpo:GFP inflammation n (survived/tested) [1]: 12/20
TNF-α ([2]; 1 μM): NS
TNF-α ([2]; 10 μM): NS
TNF-α ([2]; 30 μM): NS
minimal effective concentration [3]: 200 µg/mL
fli1:EGFP angiogenesis n (survived/tested) [3]: 6/23
Viability ([4]; 1 μM): NS
Viability ([4]; 10 μM): NS
Viability ([4]; 30 μM): −
Nitrite ([5]; 1 μM): −
Nitrite ([5]; 10 μM): −
Nitrite ([5]; 30 μM): −

CC1(C)S[C@@H]2[C@H](N3C(=O)c4ccccc4C3=O)C(=O)N2[C@H]1C(=O)O [Compound 64]
minimal effective concentration [1]: 10 µg/mL
mpo:GFP inflammation n (survived/tested) [1]: 8/15
TNF-α ([2]; 1 μM): NS
TNF-α ([2]; 10 μM): NS
TNF-α ([2]; 30 μM): NS
minimal effective concentration [3]: 10 µg/mL
fli1:EGFP angiogenesis n (survived/tested) [3]: 8/15
Viability ([4]; 1 μM): NS
Viability ([4]; 10 μM): NS
Viability ([4]; 30 μM): NS
Nitrite ([5]; 1 μM): NS
Nitrite ([5]; 10 μM): NS
Nitrite ([5]; 30 μM): NS

CC1(C)S[C@@H]2[C@H](N3Cc4ccccc4C3=O)C(=O)N2[C@H]1C(=O)O [Compound 65, (1)-(2S,5R,6R)-3,3-Dimethyl-7-oxo-6-(1-oxo-1,3-dihydro-1H-isoindol-2-yl)-4-thia-1-azabicyclo[3.2.0]heptane-2-carboxylic acid]
minimal effective concentration [1]: 200 µg/mL
mpo:GFP inflammation n (survived/tested) [1]: 10/20
TNF-α ([2]; 1 μM): −
TNF-α ([2]; 10 μM): −
TNF-α ([2]; 30 μM): −
minimal effective concentration [3]: 200 µg/mL
fli1:EGFP angiogenesis n (survived/tested) [3]: 13/13
Viability ([4]; 1 μM): NS
Viability ([4]; 10 μM): NS
Viability ([4]; 30 μM): NS
Nitrite ([5]; 1 μM): NS
Nitrite ([5]; 10 μM): NS
Nitrite ([5]; 30 μM): NS

FC(F)(F)c1ccc(/N=C2/c3ccccc3CN2c2ccc(C(F)(F)F)cn2)nc1 [Compound 66]
minimal effective concentration [1]: 100 µg/mL
mpo:GFP inflammation n (survived/tested) [1]: 6/15
TNF-α ([2]; 1 μM): NS
TNF-α ([2]; 10 μM): NS
TNF-α ([2]; 30 μM): +
minimal effective concentration [3]: 100 µg/mL
fli1:EGFP angiogenesis n (survived/tested) [3]: 15/15
Viability ([4]; 1 μM): −
Viability ([4]; 10 μM): NS
Viability ([4]; 30 μM): −
Nitrite ([5]; 1 μM): NS
Nitrite ([5]; 10 μM): NS
Nitrite ([5]; 30 μM): +

FC(F)(F)c1ccnc(/N=C2/c3ccccc3CN2c2cc(C(F)(F)F)ccn2)c1 [Compound 67, N-(4-Trifluoromethylpyridin-2-yl)-1-imino(4-trifluoromethylpyridin-2-yl)-isoindoline]
minimal effective concentration [1]: 200 µg/mL
mpo:GFP inflammation n (survived/tested) [1]: 6/15
TNF-α ([2]; 1 μM): NS
TNF-α ([2]; 10 μM): NS
TNF-α ([2]; 30 μM): NS
minimal effective concentration [3]: 10 µg/mL
fli1:EGFP angiogenesis n (survived/tested) [3]: 13/22
Viability ([4]; 1 μM): NS
Viability ([4]; 10 μM): NS
Viability ([4]; 30 μM): NS
Nitrite ([5]; 1 μM): NS
Nitrite ([5]; 10 μM): NS
Nitrite ([5]; 30 μM): +

O=C1c2ccccc2CN1c1ccc(C(F)(F)F)cc1 [Compound 68]
minimal effective concentration [1]: 100 µg/mL
mpo:GFP inflammation n (survived/tested) [1]: 5/15
TNF-α ([2]; 1 μM): NS
TNF-α ([2]; 10 μM): NS
TNF-α ([2]; 30 μM): NS
minimal effective concentration [3]: 10 µg/mL
fli1:EGFP angiogenesis n (survived/tested) [3]: 22/34
Viability ([4]; 1 μM): NS
Viability ([4]; 10 μM): NS
Viability ([4]; 30 μM): NS
Nitrite ([5]; 1 μM): NS
Nitrite ([5]; 10 μM): NS
Nitrite ([5]; 30 μM): NS

O=C1c2ccccc2CN1C12CC3CC(CC(C3)C1)C2 [Compound 69]
minimal effective concentration [1]: 200 µg/mL
mpo:GFP inflammation n (survived/tested) [1]: 8/17
TNF-α ([2]; 1 μM): NS
TNF-α ([2]; 10 μM): NS
TNF-α ([2]; 30 μM): NS
minimal effective concentration [3]: 10 µg/mL
fli1:EGFP angiogenesis n (survived/tested) [3]: 6/14
Viability ([4]; 1 μM): NS
Viability ([4]; 10 μM): NS
Viability ([4]; 30 μM): NS
Nitrite ([5]; 1 μM): NS
Nitrite ([5]; 10 μM): NS
Nitrite ([5]; 30 μM): NS

O=C1c2ccccc2CN1CC12CC3CC(CC(C3)C1)C2 [Compound 70]
minimal effective concentration [1]: 200 µg/mL
mpo:GFP inflammation n (survived/tested) [1]: 10/15
TNF-α ([2]; 1 μM): NS
TNF-α ([2]; 10 μM): +
TNF-α ([2]; 30 μM): +
minimal effective concentration [3]: 10 µg/mL
fli1:EGFP angiogenesis n (survived/tested) [3]: 8/10
Viability ([4]; 1 μM): NS
Viability ([4]; 10 μM): NS
Viability ([4]; 30 μM): NS
Nitrite ([5]; 1 μM): NS
Nitrite ([5]; 10 μM): NS
Nitrite ([5]; 30 μM): +

O=C1c2ccccc2CN1C1C2CC3CC(C2)CC1C3 (centres unmarked) [Compound 72, 2,3-Dihydro-2-(tricyclo[3.3.1.1^3,7]dec-2-yl)-1H-isoindol-1-one]
minimal effective concentration [1]: 10 µg/mL
mpo:GFP inflammation n (survived/tested) [1]: 6/15
TNF-α ([2]; 1 μM): +
TNF-α ([2]; 10 μM): NS
TNF-α ([2]; 30 μM): +
minimal effective concentration [3]: 200 µg/mL
fli1:EGFP angiogenesis n (survived/tested) [3]: 9/20
Viability ([4]; 1 μM): +
Viability ([4]; 10 μM): NS
Viability ([4]; 30 μM): −
Nitrite ([5]; 1 μM): NS
Nitrite ([5]; 10 μM): NS
Nitrite ([5]; 30 μM): +

O=C1c2ccccc2CN1C12CC3CC(CC1C3)C2 [Compound 73]
minimal effective concentration [1]: 10 µg/mL
mpo:GFP inflammation n (survived/tested) [1]: 7/13
TNF-α ([2]; 1 μM): NS
TNF-α ([2]; 10 μM): NS
TNF-α ([2]; 30 μM): +
minimal effective concentration [3]: 10 µg/mL
fli1:EGFP angiogenesis n (survived/tested) [3]: 6/12
Viability ([4]; 1 μM): NS
Viability ([4]; 10 μM): NS
Viability ([4]; 30 μM): −
Nitrite ([5]; 1 μM): NS
Nitrite ([5]; 10 μM): +
Nitrite ([5]; 30 μM): +

CC(N1Cc2ccccc2C1=S)C12CC3CC(CC(C3)C1)C2 (centres unmarked) [Compound 74, 2,3-Dihydro-2-[1-(1-tricyclo[3.3.1.1^3,7]dec-1-yl)ethyl]-1H-isoindol-1-thione]
minimal effective concentration [1]: 200 µg/mL
mpo:GFP inflammation n (survived/tested) [1]: 6/14
TNF-α ([2]; 1 μM): NS
TNF-α ([2]; 10 μM): NS
TNF-α ([2]; 30 μM): NS
minimal effective concentration [3]: 10 µg/mL
fli1:EGFP angiogenesis n (survived/tested) [3]: 9/15
Viability ([4]; 1 μM): NS
Viability ([4]; 10 μM): NS
Viability ([4]; 30 μM): NS
Nitrite ([5]; 1 μM): NS
Nitrite ([5]; 10 μM): NS
Nitrite ([5]; 30 μM): +
